Results taken from patent publication US4198506A, “2-Carboxyalkyl-2,3-dihydro-6-mercapto-s-triazolo[4,3-b]-pyridazin-3-ones” (Bristol-Myers Company, priority 1979, dated 1980).
Converted amounts (≈) assume the structure as drawn. “And” between values parts separate entries of the source, which are not always exact repeats. Equal values may be shown once. Read-outs that look alike come from different tables or passages of the source.

Legend:
S. pyogenes = assay: In vitro activity (geometric mean MIC, serial dilution); format: cell-based; conditions: Streptococcus pyogenes; 10 strains; Mueller-Hinton agar, inoculum 10^4 dilution; MIC cutoff 200 mcg./ml.
Klebsiella sp. = assay: as above; format: cell-based; conditions: 12 strains, Mueller-Hinton agar, inoculum 10^4 dilution, MIC cutoff 200 mcg./ml., read-out: Geometric Mean MIC
Enterobacter (sensitive) = assay: as above; format: cell-based; conditions: 3 strains, Mueller-Hinton agar, inoculum 10^4 dilution, MIC cutoff 200 mcg./ml., read-out: Geometric Mean MIC
S. aureus (sensitive) = assay: as above; format: cell-based; conditions: Staphylococcus aureus, read-out: Geometric Mean MIC
Proteus (indole-) = assay: as above; format: cell-based; conditions: read-out: Geometric Mean MIC
Providencia sp. = assay: as above; format: cell-based; conditions: 5 strains, Mueller-Hinton agar, inoculum 10^4 dilution, MIC cutoff 200 mcg./ml., read-out: Geometric Mean MIC
[1] = system: Enterobacter (Cephalosporinase +); assay: as above; format: cell-based; conditions: 7 strains, Mueller-Hinton agar, inoculum 10^4 dilution, MIC cutoff 200 mcg./ml.
[2] = system: Proteus (indole +, cephalosporinase +); assay: as above; format: cell-based; conditions: read-out: Geometric Mean MIC
Proteus (indole +) = assay: as above; format: cell-based; conditions: read-out: Geometric Mean MIC
[3] = system: S. aureus penicillinase+); assay: as above; format: cell-based; conditions: Staphylococcus aureus; 13 strains; Mueller-Hinton agar, inoculum 10^4 dilution; MIC cutoff 200 mcg./ml.; read-out: Geometric Mean MIC
[4] = system: S. aureus (Methicillin-R); assay: as above; format: cell-based; conditions: Staphylococcus aureus; 15 strains; Mueller-Hinton agar, inoculum 10^4 dilution; MIC cutoff 200 mcg./ml.
E. coli Juhl = assay: In vivo activity (Mice, sc); conditions: several determinations listed; for ED50: Escherichia coli, read-out: PD50
Text: (§1) |In vivo Activity of BB-[…] and Related Compounds (Mice, sc) | (PD50 (mgm./kg.)

S. aureus Smith = assay: In vivo activity (Mice, sc); conditions: Staphylococcus aureus, several determinations listed, read-out: PD50
Text: as §1

[5] = system: E. coli (Penicillinase +); assay: In vitro activity (geometric mean MIC, serial dilution); format: cell-based; conditions: Escherichia coli, read-out: Geometric Mean MIC
S. marcescens = assay: as above; format: cell-based; conditions: Serratia marcescens, read-out: Geometric Mean MIC
D. pneumoniae = assay: as above; format: cell-based; conditions: Streptococcus pneumoniae; 9 strains; Mueller-Hinton agar, inoculum 10^4 dilution; MIC cutoff 200 mcg./ml.
E. coli (sensitive) = assay: as above; format: cell-based; conditions: Escherichia coli, read-out: Geometric Mean MIC
Kl. pneumoniae = assay: In vitro antibacterial activity (Steers' agar dilution MIC); format: cell-based; conditions: Klebsiella pneumoniae, table 4 (BB-S 525)
Text: (§2) In vitro Antibacterial Activity of BB-S493 Compared with
(§3) BB-S479 and Cefamandole (Determined by Steers' Agar Dilu-
(§4) tion Method on Mueller-Hinton Agar Plate)
(§5) In vitro antibacterial activity of BB-S 525 compared with
(§6) BB-S 479 and cefamandole (determined by Steers' agar dilution
(§7) method on Mueller-Hinton agar plate)

Sal. typhosa = assay: as above; format: cell-based; conditions: table 4 (BB-S 525); Sal. typhosa
Text: as §2, §3, §4, §5, §6, §7

Shig. sonnei = assay: as above; format: cell-based; conditions: Shigella sonnei, table 4 (BB-S 525); Shig. sonnei
Text: as §2, §3, §4, §5, §6, §7

E. coli = assay: as above; format: cell-based; conditions: Escherichia coli
Text: as §2, §3, §4, §5, §6, §7

S. aureus = assay: as above; format: cell-based; conditions: Staphylococcus aureus, table 4 (BB-S 525)
Text: as §2, §3, §4, §5, §6, §7

Shig. flexneri = assay: as above; format: cell-based; conditions: Shigella flexneri; table 4 (BB-S 525); Shig. flexneri; read-out: MIC
Text: as §2, §3, §4, §5, §6, §7

St. faecalis = assay: as above; format: cell-based; conditions: Enterococcus faecalis, table 4 (BB-S 525); St. faecalis; read-out: MIC
Ps. aeruginosa = assay: as above; format: cell-based; conditions: table 4 (BB-S 525), Ps. aeruginosa
Pr. mirabilis = assay: as above; format: cell-based; conditions: Proteus mirabilis, table 4 (BB-S 525), Pr. mirabilis, read-out: MIC
Pr. vulgaris = assay: as above; format: cell-based; conditions: Proteus vulgaris, table 4 (BB-S 525), Pr. vulgaris, read-out: MIC
Enterob. cloacae = assay: as above; format: cell-based; conditions: table 4 (BB-S 525); Enterob. cloacae; read-out: MIC
Serr. marcescens = assay: as above; format: cell-based; conditions: Serratia marcescens, table 4 (BB-S 525); Serr. marcescens; read-out: MIC
B. anthracis = assay: microbe, parasite or virus in culture; format: cell-based; conditions: Bacillus anthracis, table 4 (BB-S 525); B. anthracis
Sal. enteritidis = assay: In vitro antibacterial activity (Steers' agar dilution MIC); format: cell-based; conditions: Salmonella enterica, table 4 (BB-S 525), Sal. enteritidis
Pr. morganii = assay: as above; format: cell-based; conditions: Morganella morganii, table 4 (BB-S 525), Pr. morganii, read-out: MIC
Shig. dysenteriae = assay: as above; format: cell-based; conditions: Shigella dysenteriae, table 4 (BB-S 525); Shig. dysenteriae
Pr. rettgeri = assay: as above; format: cell-based; conditions: Providencia rettgeri, table 4 (BB-S 525); Pr. rettgeri

How did the MIC (S. pyogenes) turn out when CNCc1cc(O)ccc1CC(=O)N[C@@H]1C(=O)N2C(C(=O)O)=C(CSc3ccc4nn(CC(=O)O)c(=O)n4n3)CS[C@H]12 [BB-S478, 7-(2-N-Methylaminomethyl-4-hydroxyphenylacetamido)-3-(2-N-carboxymethyl-2,3-dihydro-s-triazolo[4,5-b]pyridazin-3-on-6-ylthiomethyl)-3-cephem-4-carboxylic Acid] was run?
Its MIC is 0.04 µg/mL (≈ 0.065 µM).

What about the MIC (Klebsiella sp.) of the same compound?
The MIC was 0.6 µg/mL (≈ 0.975 µM).

What about the MIC (Enterobacter (sensitive)) of the same compound?
Its MIC is 0.8 µg/mL (≈ 1.3 µM).

What about the MIC (S. aureus (sensitive)) of the same compound?
Its MIC is 0.4 µg/mL (≈ 0.65 µM).

What about the MIC (Proteus (indole-)) of the same compound?
Its MIC is 0.4 µg/mL (≈ 0.65 µM).

What about the MIC (Providencia sp.) of the same compound?
The MIC was 4.8 µg/mL (≈ 7.8 µM).

What about the MIC [1] of the same compound?
Its MIC is 2.6 µg/mL (≈ 4.22 µM).

What about the MIC [2] of the same compound?
The MIC was 7.3 µg/mL (≈ 11.9 µM).

And the MIC (Proteus (indole +))?
Its MIC is 0.3 µg/mL (≈ 0.487 µM).

What about the MIC [3] of the same compound?
Its MIC is 1 µg/mL (≈ 1.62 µM).

What about the MIC [4] of the same compound?
The MIC was 50 µg/mL (≈ 81.2 µM).

What about the ED50 (E. coli Juhl) of the same compound?
The ED50 was 0.08 mg/kg.

And the ED50 (S. aureus Smith)?
Its ED50 is 0.08 mg/kg.

What about the MIC [5] of the same compound?
The MIC was 10 µg/mL (≈ 16.2 µM).

And the MIC (S. marcescens)?
Its MIC is 40 µg/mL (≈ 65 µM).

What about the MIC (D. pneumoniae) of the same compound?
Its MIC is 0.03 µg/mL (≈ 0.0487 µM).

And the MIC (E. coli (sensitive); 13 strains, Mueller-Hinton agar, inoculum 10^4 dilution, MIC cutoff 200 mcg./ml.)?
Its MIC is 0.2 µg/mL (≈ 0.325 µM).

What does the source list for CNCc1ccccc1CC(=O)N[C@@H]1C(=O)N2C(C(=O)O)=C(CSc3ccc4nn(CCC(=O)O)c(=O)n4n3)CS[C@H]12 [BB-S 525, 7-[o-(N-Methylaminomethyl)phenylacetamido]-3-[2-(2-carboxyethyl)-2,3-dihydro-s-triazolo[4,3-b]pyridazin-3-on-6-ylthiomethyl]-3-cephem-4-carboxylic acid]?
MIC (Kl. pneumoniae; Kl. pneumoniae, 1st line): 1.6 µg/mL (≈ 2.61 µM); MIC (Kl. pneumoniae; Kl. pneumoniae, 2nd line): 0.2 µg/mL (≈ 0.326 µM); MIC (Kl. pneumoniae; Kl. pneumoniae, 3rd line): 0.2 µg/mL (≈ 0.326 µM); MIC (Kl. pneumoniae; Kl. pnuemoniae, 4th line): 0.2 µg/mL (≈ 0.326 µM); MIC (Sal. typhosa): 0.2 µg/mL (≈ 0.326 µM); MIC (Shig. sonnei): 0.1 µg/mL (≈ 0.163 µM); MIC (E. coli; ATCC8739, table 4 (BB-S 525), E. coli ATCC 8739): 6.3 µg/mL (≈ 10.3 µM); MIC (E. coli; table 4 (BB-S 525), E. coli BX-1373, read-out: MIC): 0.4 µg/mL (≈ 0.652 µM); MIC (E. coli; table 4 (BB-S 525), E. coli Juhl, read-out: MIC): 0.4 µg/mL (≈ 0.652 µM); MIC (E. coli; table 4 (BB-S 525), E. coli NIHJ, read-out: MIC): 0.2 µg/mL (≈ 0.326 µM); MIC (E. coli; table 4 (BB-S 525), E. coli, strain not given, 1st line, read-out: MIC): 0.2 µg/mL (≈ 0.326 µM); MIC (E. coli; table 4 (BB-S 525), E. coli, strain not given, 2nd line, read-out: MIC): 0.2 µg/mL (≈ 0.326 µM); MIC (E. coli; table 4 (BB-S 525), E. coli, strain not given, 3rd line, read-out: MIC): 6.3 µg/mL (≈ 10.3 µM); MIC (S. aureus; S. aureus (strain not given)): 0.2 µg/mL (≈ 0.326 µM); MIC (S. aureus; S. aureus BX-1633): 0.8 µg/mL (≈ 1.3 µM); MIC (S. aureus; S. aureus Smith): 0.4 µg/mL (≈ 0.652 µM); MIC (Shig. flexneri): 12.5 µg/mL (≈ 20.4 µM); MIC (St. faecalis): > 100 µg/mL; MIC (Ps. aeruginosa; Pseudomonas aeruginosa, 1st line, read-out: MIC): > 100 µg/mL; MIC (Ps. aeruginosa; 2nd line): > 100 µg/mL; MIC (Pr. mirabilis; 1st line): 0.4 µg/mL (≈ 0.652 µM); MIC (Pr. mirabilis; 2nd line): 0.2 µg/mL (≈ 0.326 µM); MIC (Pr. vulgaris; 1st line): 0.2 µg/mL (≈ 0.326 µM); MIC (Pr. vulgaris; 2nd line): 3.1 µg/mL (≈ 5.05 µM); MIC (Enterob. cloacae): 3.1 µg/mL (≈ 5.05 µM); MIC (Serr. marcescens): 25 µg/mL (≈ 40.7 µM); MIC (B. anthracis): 0.2 µg/mL (≈ 0.326 µM); MIC (Sal. enteritidis): 0.2 µg/mL (≈ 0.326 µM); MIC (Pr. morganii; 1st line): > 100 µg/mL; MIC (Pr. morganii; 2nd line): 0.2 µg/mL (≈ 0.326 µM); MIC (Shig. dysenteriae): 0.1 µg/mL (≈ 0.163 µM); MIC (Pr. rettgeri): 0.8 µg/mL (≈ 1.3 µM)

What does the source list for NCc1ccccc1CC(=O)N[C@@H]1C(=O)N2C(C(=O)O)=C(CSc3nnnn3CC(=O)O)CS[C@H]12 [BL-S786, reference compound]?
MIC (S. pyogenes): 0.2 µg/mL (≈ 0.385 µM); MIC (Klebsiella sp.): 0.8 µg/mL (≈ 1.54 µM); MIC (Enterobacter (sensitive)): 1.3 µg/mL (≈ 2.5 µM); MIC (S. aureus (sensitive); 4 strains, Mueller-Hinton agar, inoculum 10^4 dilution, MIC cutoff 200 mcg./ml.): 1.3 µg/mL (≈ 2.5 µM); MIC (Proteus (indole-)): 0.9 µg/mL (≈ 1.73 µM); MIC (Providencia sp.): 1.4 µg/mL (≈ 2.69 µM); MIC [1]: 7.7 µg/mL (≈ 14.8 µM); MIC ([2]; 5 strains, Mueller-Hinton agar, inoculum 10^4 dilution, MIC cutoff 200 mcg./ml.): 29 µg/mL (≈ 55.8 µM); MIC (Proteus (indole +)): 0.7 µg/mL (≈ 1.35 µM); MIC [3]: 3 µg/mL (≈ 5.77 µM); MIC [4]: 48 µg/mL (≈ 92.4 µM); ED50 (E. coli Juhl): 0.43 mg/kg; PD50 (E. coli Juhl): 0.55 mgm./kg. and 0.46 mgm./kg. and 0.39 mgm./kg.; MIC ([5]; 7 strains, Mueller-Hinton agar, inoculum 10^4 dilution, MIC cutoff 200 mcg./ml.): 9.3 µg/mL (≈ 17.9 µM); MIC (S. marcescens; 16 strains, Mueller-Hinton agar, inoculum 10^4 dilution, MIC cutoff 200 mcg./ml.): 180 µg/mL (≈ 346 µM); MIC (D. pneumoniae): 0.08 µg/mL (≈ 0.154 µM); MIC (E. coli (sensitive)): 0.4 µg/mL (≈ 0.77 µM)
